Test results as given in the supplement of paper PMC10307832.

Tests used:
Assay in all cases: relative viability (nuclei count vs DMSO), 5 days (fraction); higher = more cells survive
HCC-44 = tested on: HCC-44
Summary of the method: (§1)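 Lung cancer cell lines were pin-tool dosed in 1536-well plates on the day after seeding, with either a lone drug or a fixed anchor-drug dose plus five library-drug doses (not always all listed) in √10 steps. Nuclei were counted on 4× images after 5 days. Relative viability is the ratio of treated-well to vehicle-well nuclei counts, with each value a median of duplicate plates.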

SK-MES-1 = tested on: SK-MES-1
Summary of the method: as §1

NCI-H520 = tested on: NCI-H520
Summary of the method: as §1

NCI-H1915 = tested on: NCI-H1915
Summary of the method: as §1

LXF-289 = tested on: LXF-289
Summary of the method: as §1

COR-L 105 = tested on: COR-L 105
Summary of the method: as §1

LOU-NH91 = tested on: LOU-NH91
Summary of the method: as §1

NCI-H1975 = tested on: NCI-H1975
Summary of the method: as §1

NCI-H1793 = tested on: NCI-H1793
Summary of the method: as §1

NCI-H2023 = tested on: NCI-H2023
Summary of the method: as §1

HCC-827 = tested on: HCC-827
Summary of the method: as §1

A-427 = tested on: A-427
Summary of the method: as §1

SW 1573 = tested on: SW 1573
Summary of the method: as §1

NCI-H1993 = tested on: NCI-H1993
Summary of the method: as §1

NCI-H2087 = tested on: NCI-H2087
Summary of the method: as §1

H3255 = tested on: H3255
Summary of the method: as §1

NCI-H1792 = tested on: NCI-H1792
Summary of the method: as §1

NCI-H2170 = tested on: NCI-H2170
Summary of the method: as §1

NCI-H1944 = tested on: NCI-H1944
Summary of the method: as §1

CCNC(=O)c1noc(-c2cc(C(C)C)c(O)cc2O)c1-c1ccc(CN2CCOCC2)cc1 [Luminespib] + CC1(C)CCC(c2ccc(Cl)cc2)=C(CN2CCN(c3ccc(C(=O)NS(=O)(=O)c4ccc(N[C@H](CCN5CCOCC5)CSc5ccccc5)c(S(=O)(=O)C(F)(F)F)c4)cc3)CC2)C1 [Navitoclax] (partner 0.5 µM)
relative viability (HCC-44; first compound 0.002 µM): 0.943 | relative viability (HCC-44; first compound 0.006325 µM): 0.99 | relative viability (HCC-44; first compound 0.02 µM): 1.18 | relative viability (HCC-44; first compound 0.06325 µM): 0.957 | relative viability (HCC-44; first compound 0.2 µM): 0.129 | relative viability (SK-MES-1; first compound 0.002 µM): 1.27 | relative viability (SK-MES-1; first compound 0.006325 µM): 1.24 | relative viability (SK-MES-1; first compound 0.02 µM): 1.28 | relative viability (SK-MES-1; first compound 0.06325 µM): 0.149 | relative viability (SK-MES-1; first compound 0.2 µM): 0.131 | relative viability (NCI-H520; first compound 0.002 µM): 1.01 | relative viability (NCI-H520; first compound 0.006325 µM): 1 | relative viability (NCI-H520; first compound 0.02 µM): 1.1 | relative viability (NCI-H520; first compound 0.06325 µM): 0.177 | relative viability (NCI-H520; first compound 0.2 µM): 0.167 | relative viability (NCI-H1915; first compound 0.002 µM): 0.8 | relative viability (NCI-H1915; first compound 0.006325 µM): 0.793 | relative viability (NCI-H1915; first compound 0.02 µM): 0.803 | relative viability (NCI-H1915; first compound 0.06325 µM): 0.808 | relative viability (NCI-H1915; first compound 0.2 µM): 0.775 | relative viability (LXF-289; first compound 0.002 µM): 0.951 | relative viability (LXF-289; first compound 0.006325 µM): 0.937 | relative viability (LXF-289; first compound 0.02 µM): 1.05 | relative viability (LXF-289; first compound 0.06325 µM): 0.851 | relative viability (LXF-289; first compound 0.2 µM): 0.302 | relative viability (COR-L 105; first compound 0.002 µM): 0.729 | relative viability (COR-L 105; first compound 0.006325 µM): 0.696 | relative viability (COR-L 105; first compound 0.02 µM): 1.12 | relative viability (COR-L 105; first compound 0.06325 µM): 0.278 | relative viability (COR-L 105; first compound 0.2 µM): 0.234 | relative viability (LOU-NH91; first compound 0.002 µM): 0.692 | relative viability (LOU-NH91; first compound 0.006325 µM): 0.707 | relative viability (LOU-NH91; first compound 0.02 µM): 0.49 | relative viability (LOU-NH91; first compound 0.06325 µM): 0.257 | relative viability (LOU-NH91; first compound 0.2 µM): 0.256 | relative viability (NCI-H1975; first compound 0.002 µM): 1.17 | relative viability (NCI-H1975; first compound 0.006325 µM): 1.06 | relative viability (NCI-H1975; first compound 0.02 µM): 0.877 | relative viability (NCI-H1975; first compound 0.06325 µM): 0.218 | relative viability (NCI-H1975; first compound 0.2 µM): 0.142 | relative viability (NCI-H1793; first compound 0.002 µM): 0.517 | relative viability (NCI-H1793; first compound 0.006325 µM): 0.374 | relative viability (NCI-H1793; first compound 0.02 µM): 0.293 | relative viability (NCI-H1793; first compound 0.06325 µM): 0.137 | relative viability (NCI-H1793; first compound 0.2 µM): 0.122 | relative viability (NCI-H2023; first compound 0.002 µM): 0.969 | relative viability (NCI-H2023; first compound 0.006325 µM): 1.11 | relative viability (NCI-H2023; first compound 0.02 µM): 0.99 | relative viability (NCI-H2023; first compound 0.06325 µM): 0.0933 | relative viability (NCI-H2023; first compound 0.2 µM): 0.0995 | relative viability (HCC-827; first compound 0.002 µM): 1.07 | relative viability (HCC-827; first compound 0.006325 µM): 1.02 | relative viability (HCC-827; first compound 0.02 µM): 1.04 | relative viability (HCC-827; first compound 0.06325 µM): 1.01 | relative viability (HCC-827; first compound 0.2 µM): 1 | relative viability (A-427; first compound 0.002 µM): 1.01 | relative viability (A-427; first compound 0.006325 µM): 0.913 | relative viability (A-427; first compound 0.02 µM): 0.497 | relative viability (A-427; first compound 0.06325 µM): 0.99 | relative viability (A-427; first compound 0.2 µM): 1.03 | relative viability (SW 1573; first compound 0.002 µM): 0.927 | relative viability (SW 1573; first compound 0.006325 µM): 0.892 | relative viability (SW 1573; first compound 0.02 µM): 0.803 | relative viability (SW 1573; first compound 0.06325 µM): 0.0809 | relative viability (SW 1573; first compound 0.2 µM): 0.0666 | relative viability (NCI-H1993; first compound 0.002 µM): 0.937 | relative viability (NCI-H1993; first compound 0.006325 µM): 1.02 | relative viability (NCI-H1993; first compound 0.02 µM): 0.762 | relative viability (NCI-H1993; first compound 0.06325 µM): 0.644 | relative viability (NCI-H1993; first compound 0.2 µM): 0.466 | relative viability (NCI-H2087; first compound 0.002 µM): 1.03 | relative viability (NCI-H2087; first compound 0.006325 µM): 0.871 | relative viability (NCI-H2087; first compound 0.02 µM): 0.911 | relative viability (NCI-H2087; first compound 0.06325 µM): 0.202 | relative viability (NCI-H2087; first compound 0.2 µM): 0.202 | relative viability (H3255; first compound 0.002 µM): 0.517 | relative viability (H3255; first compound 0.006325 µM): 0.511 | relative viability (H3255; first compound 0.02 µM): 0.272 | relative viability (H3255; first compound 0.06325 µM): 0.536 | relative viability (H3255; first compound 0.2 µM): 0.112 | relative viability (NCI-H1792; first compound 0.002 µM): 0.535 | relative viability (NCI-H1792; first compound 0.006325 µM): 0.497 | relative viability (NCI-H1792; first compound 0.02 µM): 0.539 | relative viability (NCI-H1792; first compound 0.06325 µM): 0.32 | relative viability (NCI-H1792; first compound 0.2 µM): 0.216 | relative viability (NCI-H2170; first compound 0.002 µM): 0.646 | relative viability (NCI-H2170; first compound 0.006325 µM): 0.596 | relative viability (NCI-H2170; first compound 0.02 µM): 0.293 | relative viability (NCI-H2170; first compound 0.06325 µM): 0.581 | relative viability (NCI-H2170; first compound 0.2 µM): 0.451 | relative viability (NCI-H1944; first compound 0.002 µM): 1.06 | relative viability (NCI-H1944; first compound 0.006325 µM): 0.99 | relative viability (NCI-H1944; first compound 0.02 µM): 0.708 | relative viability (NCI-H1944; first compound 0.06325 µM): 0.939 | relative viability (NCI-H1944; first compound 0.2 µM): 0.973
